Measured values: patent publication US20080194653A1, “Therapeutic Agent For Solid Tumor” (KYOWA HAKKO KOGYO CO., LTD., priority 2005, published 2008)
pIC50: −log10 of the molar value. Structures can show the parent of a compound that is named as a salt.

Assays:
[1] = test system: human lung cancer A549 cells; test: Cell growth inhibition test against lung cancer cells (XTT); type: cell-based; conditions: read-out: GI50 value (concentration of 50% growth inhibition), 72 hours
Procedure: (§1) As cancer cell lines, human lung cancer A549 cells (ATCC No. CCL-185), human ovarian cancer SK-OV-3 cells (ATCC No. HTB-77), and human colon cancer HCT 116 cells (ATCC No. CCL-247) were used. For the culture of A549 cells, Nutrient Mixture F-12K medium (Invitrogen, catalog No. 21127-022) containing 10% fetal bovine serum (Invitrogen, catalog No. 10099-141), 100 units/mL penicillin (Invitrogen, catalog No. 15140-122), and 100 μg/mL streptomycin (Invitrogen, catalog No. 15140-122) was used. For the culture of SK-OV-3 cells and HCT 116 cells, McCoy's 5A medium (Invitrogen, catalog No. 16600-082) containing 10% fetal bovine serum (Invitrogen, catalog No. 10099-141), 100 units/mL penicillin (Invitrogen, catalog No. 15140-122), and 100 μg/mL streptomycin (Invitrogen, catalog No. 15140-122) was used. The cells were cultured at 37° C. in a 5% carbon dioxide atmosphere.
(§2) A549 cells (1000 cells/well), SK-OV-3 cells (2000 cells/well), or HCT 116 cells (1000 cells/well) were seeded in each well of 96-well plates (Nunc, catalog No. 167008), and cultured overnight. Test compounds diluted stepwise were added, and the cells were further cultured for 72 hours (final volume: 100 μL/well). Fifty μL XTT labeling mixture of Cell Proliferation Kit II (XTT) (Roche Diagnostics, catalog No. 1465015) was added to each well, and the plates were incubated at 37° C. After 1 to 3 hours, absorbance at 490 nm (reference wavelength: 655 nm) was measured with a plate reader (Molecular Device, SpectraMax 340PC^384). Growth ratios of the cells in the wells treated with the test compounds were calculated based on the growth ratio of the cells in the control well treated with solvent (dimethyl sulfoxide (DMSO)) for 72 hours, which was defined as 100%.

[2] = test system: human pancreatic cancer MIA PaCa-2 cells; test: Cell growth inhibition test against pancreatic cancer cells (XTT); type: cell-based; conditions: read-out: GI50 value (concentration of 50% growth inhibition)
Procedure: as §2
(§3) As cancer cell lines, human pancreatic cancer MIA PaCa-2 cells (JCRB No. 0070), human cervical cancer HeLa cells (ATCC No. CCL-2), human breast cancer MDA-MB-468 cells (ATCC No. HTB-132), human prostate cancer DU 145 cells (ATCC No. HTB-81), human skin cancer SK-MEL-28 cells (ATCC No. HTB-72), human head and neck cancer KB cells (JCRB No. 9027), human renal cancer 786-0 cells (ATCC No. CRL-1932), and human liver cancer Hep G2 cells (ATCC No. HB-8065) were used. The cells were cultured at 37° C. in a 5% carbon dioxide atmosphere (except for the human breast cancer MDA-MB-468 cells, which were cultured under the condition at 37° C.) by using the mediums mentioned below, respectively.
(§4) In the same manner as that in Test Example 1, the cells were seeded (500 to 4000 cells/well, respectively) in each well of 96-well plates (Nunc, catalog No. 167008), and growth ratios of the cells treated with test compounds were calculated. The measurement of absorbance was performed at 1.5 to 3 hours after the addition of the XTT labeling mixture.

[3] = test system: human cervical cancer HeLa cells; test: Cell growth inhibition test against cervical cancer cells (XTT); type: cell-based; conditions: read-out: GI50 value (concentration of 50% growth inhibition)
Procedure: as §2, §3, §4

[4] = test system: human renal cancer 786-0 cells; test: Cell growth inhibition test against renal cancer cells (XTT); type: cell-based; conditions: read-out: GI50 value (concentration of 50% growth inhibition)
Procedure: as §2, §3, §4

[5] = test system: human colon cancer HCT 116 cells; test: Cell growth inhibition test against colon cancer cells (XTT); type: cell-based; conditions: read-out: GI50 value (concentration of 50% growth inhibition), 72 hours
Procedure: as §1, §2

[6] = test system: human breast cancer MDA-MB-468 cells; test: Cell growth inhibition test against breast cancer cells (XTT); type: cell-based; conditions: read-out: GI50 value (concentration of 50% growth inhibition)
Procedure: as §2, §3, §4

[7] = test system: human head and neck cancer KB cells; test: Cell growth inhibition test against head and neck cancer cells (XTT); type: cell-based; conditions: read-out: GI50 value (concentration of 50% growth inhibition)
Procedure: as §2, §3, §4

[8] = test system: human prostate cancer DU 145 cells; test: Cell growth inhibition test against prostate cancer cells (XTT); type: cell-based; conditions: read-out: GI50 value (concentration of 50% growth inhibition)
Procedure: as §2, §3, §4

[9] = test system: human ovarian cancer SK-OV-3 cells; test: Cell growth inhibition test against ovarian cancer cells (XTT); type: cell-based; conditions: read-out: GI50 value (concentration of 50% growth inhibition), 72 hours
Procedure: as §1, §2

[10] = molecular target: T1, recombinant human Eg5 motor domain protein (Homo sapiens, UniProt P52732); test: Eg5 enzyme inhibition test (ATPase activity); type: biochemical; conditions: for pIC50: 30° C., 30 minutes, absorbance at 360 nm, read-out: Inhibition ratios (IC50) on the ATPase activity of Eg5
T1 construct: A plasmid expressing the motor domain of human Eg5 was constructed; made in house; host or cells: Escherichia coli BL21 (DE3)
T1 sequence (P52732 18-359 limits assumed): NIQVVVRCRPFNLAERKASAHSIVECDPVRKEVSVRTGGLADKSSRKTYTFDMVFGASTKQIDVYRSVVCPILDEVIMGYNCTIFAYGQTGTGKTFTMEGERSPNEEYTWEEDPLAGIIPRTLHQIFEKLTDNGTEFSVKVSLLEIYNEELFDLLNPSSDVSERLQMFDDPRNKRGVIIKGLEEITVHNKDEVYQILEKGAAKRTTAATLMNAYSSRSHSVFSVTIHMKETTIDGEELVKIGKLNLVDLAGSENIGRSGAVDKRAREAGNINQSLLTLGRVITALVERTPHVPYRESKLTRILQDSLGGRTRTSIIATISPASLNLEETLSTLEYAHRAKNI
Procedure: A recombinant human Eg5 motor domain protein was prepared by referring to the literature [Biochemistry, Vol. 35, p. […] A plasmid expressing the motor domain of human Eg5 was constructed, and transformed into Escherichia coli BL21 (DE3). The transformant was cultured at 25° C., and when the OD600 reached 0.74, isopropyl-β-D-thiogalactoside was added at a final concentration of 0.5 mmol/L. The transformant was further cultured for 4 hours, and then the culture medium was centrifuged to collect the cells. The cells were suspended in a buffer and ultrasonicated, and then the sonicated solution was centrifuged to recover the supernatant. The supernatant was purified by cation exchange column chromatography to obtain a partially purified sample. Furthermore, the partially purified sample was purified by gel filtration column chromatography to obtain a finally purified sample.
Measurement of the ATPase activity of Eg5 was carried out by referring to the literatures [EMBO Journal, Vol. 13, p. […] Solution A was dispensed into each well of a 96-well plate as 45 μL portions. Solution B was used to serially dilute a test compound. The diluted test compound solutions in a volume of 30 μL were mixed with Solution A added beforehand in each well of the 96-well plate to start the enzymatic reaction. The enzymatic reaction was performed at 30° C. for 30 minutes. […] The relative activity was calculated to calculate IC50 value.

[11] = test system: human skin cancer SK-MEL-28 cells; test: Cell growth inhibition test against skin cancer cells (XTT); type: cell-based; conditions: read-out: GI50 value (concentration of 50% growth inhibition)
Procedure: as §2, §3, §4

[12] = test system: human liver cancer Hep G2 cells; test: Cell growth inhibition test against liver cancer cells (XTT); type: cell-based; conditions: HepG2, read-out: GI50 value (concentration of 50% growth inhibition)
Procedure: as §2, §3, §4

| Compound | GI50 [1] [µM] | GI50 [2] [µM] | GI50 [3] [µM] | GI50 [4] [µM] | GI50 [5] [µM] | GI50 [6] [µM] | GI50 [7] [µM] | GI50 [8] [µM] | melting point [°C] | GI50 [9] [µM] | pIC50 [10] | GI50 [11] [µM] | GI50 [12] [µM] | Inhibition of the ATPase activity of Eg5 (in words) [10] |
| --- | --- | --- | --- | --- | --- | --- | --- | --- | --- | --- | --- | --- | --- | --- |
| CCNCCS(=O)(=O)NCCC1(c2ccccc2)SC(NC(=O)C(C)(C)C)=NN1C(=O)C(C)(C)C (racemic) [Compound 14, N-{4-(2,2-Dimethylpropionyl)-5-[2-(2-ethylaminoethanesulfonylamino)ethyl]-5-phenyl-4,5-dihydro-1,3,4-thiadiazol-2-yl}-2,2-dimethylpropanamide] |  |  |  |  |  |  |  |  |  |  |  |  |  | inhibited the ATPase activity of Eg5 in a concentration-dependent manner |
| CCC(=O)N1N=C(NC(=O)C(C)(C)C)SC1(CCNS(C)(=O)=O)c1ccccc1 (single isomer, unassigned; (-)) [Compound b, (−)-N-[5-(2-Methanesulfonylaminoethyl)-5-phenyl-4-propionyl-4,5-dihydro-1,3,4-thiadiazol-2-yl]-2,2-dimethylpropanamide] | < 10 | < 10 | < 10 | < 10 | < 0.1 | < 10 | < 10 | < 10 |  | < 10 | > 7.00 | < 10 |  | inhibited the ATPase activity of Eg5 in a concentration-dependent manner |
| CC(=O)N1N=C(N2CCCC2=O)SC1(CCNS(C)(=O)=O)c1ccccc1 (stereo not shown) [Compound g, N-{2-[3-Acetyl-5-(2-oxopyrrolidin-1-yl)-2-phenyl-2,3-dihydro-1,3,4-thiadiazol-2-yl]ethyl}methanesulfonamide] |  |  |  |  |  |  |  |  | 137 to 140 |  |  |  |  |  |
| CC(=O)N1N=C(NC(=O)C(C)(C)C)SC1(CCNS(C)(=O)=O)c1ccccc1 (single isomer, unassigned; (-)) [Compound f, (−)-N-[4-Acetyl-5-(2-methanesulfonylaminoethyl)-5-phenyl-4,5-dihydro-1,3,4-thiadiazol-2-yl]-2,2-dimethylpropanamide] |  |  |  |  |  |  |  |  | 187 to 190 |  |  |  |  |  |
| CC(C)(C)C(=O)N1N=C(N2CCCC2=O)SC1(CCNS(C)(=O)=O)c1ccccc1 (single isomer, unassigned; (-)) [Compound c, (−)-N-{2-[3-(2,2-Dimethylpropionyl)-5-(2-oxopyrrolidin-1-yl)-2-phenyl-2,3-dihydro-1,3,4-thiadiazol-2-yl]ethyl}methanesulfonamide] |  |  |  |  |  |  |  |  | 107 to 110 |  |  |  |  |  |

Now from value to compound, other results behind:

| GI50 [1] [µM] | GI50 [2] [µM] | GI50 [3] [µM] | GI50 [4] [µM] | GI50 [5] [µM] | GI50 [6] [µM] | GI50 [7] [µM] | GI50 [8] [µM] | melting point [°C] | GI50 [9] [µM] | pIC50 [10] | GI50 [11] [µM] | GI50 [12] [µM] | Compound | Inhibition of the ATPase activity of Eg5 (in words) [10] |
| --- | --- | --- | --- | --- | --- | --- | --- | --- | --- | --- | --- | --- | --- | --- |
| < 10 | < 10 | < 10 | < 10 | < 0.1 | < 10 | < 10 | < 10 | 169 to 171 | < 10 | > 7.00 | < 10 |  | CC(=O)N1N=C(N2CCCCC2=O)SC1(CCNS(C)(=O)=O)c1ccccc1 (single isomer, unassigned; (-)) [Compound h, (−)-N-{2-[3-Acetyl-5-(2-oxopiperidino)-2-phenyl-2,3-dihydro-1,3,4-thiadiazol-2-yl]ethyl}methanesulfonamide] | inhibited the ATPase activity of Eg5 in a concentration-dependent manner |
| < 10 | < 10 | < 10 | < 10 | < 0.1 | < 10 | < 10 | < 10 |  | < 10 | > 7.00 | < 10 | < 10 | CCNCCS(=O)(=O)NCCC1(c2ccccc2)SC(NC(=O)C(C)(C)C)=NN1C(=O)C(C)(C)C (single isomer, unassigned) [Compound i, N-{4-(2,2-Dimethylpropionyl)-5-[2-(2-ethylaminoethanesulfonylamino)ethyl]-5-phenyl-4,5-dihydro-1,3,4-thiadiazol-2-yl}-2,2-dimethylpropanamide] | inhibited the ATPase activity of Eg5 in a concentration-dependent manner |
| < 10 |  |  |  | < 0.1 |  |  |  |  | < 10 |  |  |  | CC(C)(C)C(=O)NC1=NN(C(=O)C(C)(C)C)C(CN)(c2ccccc2)S1 (stereo not shown) [Compound j, N-[5-Aminomethyl-4-(2,2-dimethylpropionyl)-5-phenyl-4,5-dihydro-1,3,4-thiadiazol-2-yl]-2,2-dimethylpropanamide] |  |
| < 10 | < 10 | < 10 | < 10 | < 0.1 |  | < 10 | < 10 |  | < 10 | > 7.00 | < 10 | < 10 | CCNCCS(=O)(=O)NCC1(c2ccccc2)SC(NC(=O)C(C)(C)C)=NN1C(=O)C(C)(C)C (single isomer, unassigned; (-)) [Compound l, (−)-N-[4-(2,2-Dimethylpropionyl)-5-(2-ethylaminoethanesulfonylamino-methyl)-5-phenyl-4,5-dihydro-1,3,4-thiadiazol-2-yl]-2,2-dimethylpropanamide] | inhibited the ATPase activity of Eg5 in a concentration-dependent manner |
|  |  |  |  |  |  |  |  | 175 to 182 |  |  |  |  | CC(C)(C)C(=O)NC1=NN(C(=O)C(C)(C)C)C(CN)(c2ccccc2)S1 (stereo not shown) (as salt: hydrochloride) [Compound j, N-[5-Aminomethyl-4-(2,2-dimethylpropionyl)-5-phenyl-4,5-dihydro-1,3,4-thiadiazol-2-yl]-2,2-dimethylpropanamide] |  |
